# Laboratory results as given in PMC11597089, “Kratom Alkaloids: A Blood–Brain Barrier Specific Membrane Permeability Assay-Guided Isolation and Cyclodextrin Complexation Study” (Molecules, 2024).
# Test: ACE complex stability, α-CD
# Assay type: physicochemical
# Conditions: 30 mM phosphate buffer pH 7.4, 25 °C, 15 kV, 215 nm
# Protocol: (§1) To investigate the CD complexation behavior of the four kratom alkaloids, we aimed to develop an ACE method for a systematic comparative study. […] To ensure sufficient buffer capacity and to avoid excessive current and Joule heat generation, the buffer concentration was set to 30 mM, and the applied voltage was 15 kV.
# (§2) The ACE experiments were performed by using Agilent 7100 and HP^3DCE instruments (Agilent Technologies, Waldbronn, Germany). Untreated fused silica capillaries (total length of 48.5 cm, effective length of 40 cm, inner diameter of 50 μm) were purchased from Agilent Technologies. The new capillaries were conditioned with a 1 M NaOH wash for 1 h, followed by a 30 min wash each with 0.1 M NaOH and purified water. Prior to all runs, the capillary was preconditioned by rinsing with background electrolyte for 3 min. During the measurements, 30 mM phosphate buffer at pH 7.4 (30 mM Na2HPO4-NaOH) was used. The background electrolyte contained CDs at various concentrations. Stock solutions of the studied kratom alkaloids (mitragynine, paynantheine, speciogynine, speciociliatine) were prepared separately in methanol (1 mg/mL), and, right before the measurements, appropriate dilutions with purified water were used to prepare the sample solutions, applying 0.1% DMSO as the electroosmotic flow (EOF) marker. The samples were injected hydrodynamically at 40 mbar for 3 s. The positive polarity voltage was set to 15 kV, and the capillary was set to 25 °C. The electropherograms were recorded at four wavelengths (200 nm, 210 nm, 215 nm, and 220 nm), and the data were evaluated at 215 nm. In each case, three parallel measurements were performed. The measurements were evaluated using Origin and CEval software (v. 0.6i3).
# (§3) In order to determine the complex stability constants that characterized the strength of the complexes, the first step was to determine the effective mobility of the analyte at specific CD concentrations. Triangular peaks caused by electromigration dispersion are often observed in ACE measurements.
# (§4) Assuming a 1:1 complexation ratio and that the equilibrium CD concentration is almost equal to the total CD concentration, a relationship between the effective mobility relative to the EOF and the complex stability constant can be described by Function (4) (4) μeff=μA+μACDKstabCD/1+KstabCD where µeff is the effective mobility of the analyte, µA and µACD are the free and complexed analyte mobilities, [CD] is the concentration of the selector, and Kstab is the complex stability constant.
# (§5) In order to calculate the exact, apparent, averaged complex stability constant values, viscosity correction and ionic strength correction were used.
row,Compound,complex stability constant (Kstab) with α-CD
1,"C=C[C@H]1CN2CCc3c([nH]c4cccc(OC)c34)[C@@H]2C[C@@H]1/C(=C\OC)C(=O)OC [Paynantheine, paynantheine]",20 ± 2 M⁻¹

# Test: ACE complex stability, γ-CD
# Assay type: physicochemical
# Conditions: 30 mM phosphate buffer pH 7.4, 25 °C, 15 kV, 215 nm
# Protocol: as §1, §2, §3, §4, §5
row,Compound,complex stability constant (Kstab) with γ-CD
1,"C=C[C@H]1CN2CCc3c([nH]c4cccc(OC)c34)[C@@H]2C[C@@H]1/C(=C\OC)C(=O)OC [Paynantheine, paynantheine]",140 ± 5 M⁻¹

# Test: ACE complex stability, DIME-β-CD
# Assay type: physicochemical
# Conditions: dimethylated-β-CD DS~14, 30 mM phosphate buffer pH 7.4, 25 °C
# Protocol: as §1, §2
# as §3, with “measurements. […]” for “measurements.”
row,Compound,complex stability constant (Kstab) with DIME-β-CD
1,"C=C[C@H]1CN2CCc3c([nH]c4cccc(OC)c34)[C@@H]2C[C@@H]1/C(=C\OC)C(=O)OC [Paynantheine, paynantheine]",325 ± 30 M⁻¹

# Test: ACE complex stability, RAME-β-CD
# Assay type: physicochemical
# Conditions: randomly methylated-β-CD DS~12, 30 mM phosphate buffer pH 7.4, 25 °C
# Protocol: as §1, §2, §3, §4, §5
row,Compound,complex stability constant (Kstab) with RAME-β-CD
1,"C=C[C@H]1CN2CCc3c([nH]c4cccc(OC)c34)[C@@H]2C[C@@H]1/C(=C\OC)C(=O)OC [Paynantheine, paynantheine]",170 ± 30 M⁻¹

# Test: ACE complex stability, HP-γ-CD
# Assay type: physicochemical
# Conditions: hydroxypropylated-γ-CD DS~3, 30 mM phosphate buffer pH 7.4, 25 °C
# Protocol: as §1, §2
# as §3, with “measurements. […]” for “measurements.”
row,Compound,complex stability constant (Kstab) with HP-γ-CD
1,"C=C[C@H]1CN2CCc3c([nH]c4cccc(OC)c34)[C@@H]2C[C@@H]1/C(=C\OC)C(=O)OC [Paynantheine, paynantheine]",325 ± 50 M⁻¹

# Test: ACE complex stability, CM-α-CD
# Assay type: physicochemical
# Conditions: carboxymethylated-α-CD DS~3.5, 30 mM phosphate buffer pH 7.4, 25 °C
# Protocol: as §1, §2
# as §3, with “measurements. […]” for “measurements.”
row,Compound,complex stability constant (Kstab) with CM-α-CD
1,"C=C[C@H]1CN2CCc3c([nH]c4cccc(OC)c34)[C@@H]2C[C@@H]1/C(=C\OC)C(=O)OC [Paynantheine, paynantheine]",175 ± 12 M⁻¹

# Test: ACE complex stability, CM-β-CD
# Assay type: physicochemical
# Conditions: carboxymethylated-β-CD DS~3, 30 mM phosphate buffer pH 7.4, 25 °C
# Protocol: as §1, §2, §3, §4, §5
row,Compound,complex stability constant (Kstab) with CM-β-CD
1,"C=C[C@H]1CN2CCc3c([nH]c4cccc(OC)c34)[C@@H]2C[C@@H]1/C(=C\OC)C(=O)OC [Paynantheine, paynantheine]",185 ± 15 M⁻¹

# Test: ACE complex stability, CM-γ-CD
# Assay type: physicochemical
# Conditions: carboxymethylated-γ-CD DS~4, 30 mM phosphate buffer pH 7.4, 25 °C
# Protocol: as §1, §2, §3, §4, §5
row,Compound,complex stability constant (Kstab) with CM-γ-CD
1,"C=C[C@H]1CN2CCc3c([nH]c4cccc(OC)c34)[C@@H]2C[C@@H]1/C(=C\OC)C(=O)OC [Paynantheine, paynantheine]",180 ± 20 M⁻¹

# Test: ACE complex stability, CE-β-CD
# Assay type: physicochemical
# Conditions: carboxyethylated-β-CD DS~3, 30 mM phosphate buffer pH 7.4, 25 °C
# Protocol: as §1, §2, §3, §4, §5
row,Compound,complex stability constant (Kstab) with CE-β-CD
1,"C=C[C@H]1CN2CCc3c([nH]c4cccc(OC)c34)[C@@H]2C[C@@H]1/C(=C\OC)C(=O)OC [Paynantheine, paynantheine]",625 ± 40 M⁻¹

# Test: ACE complex stability, Sualfadex
# Assay type: physicochemical
# Conditions: hexakis-(6-deoxy-6-(2-carboxyethyl)thio)-α-CD, 30 mM phosphate buffer pH 7.4, 25 °C
# Protocol: as §1, §2, §3, §4, §5
row,Compound,complex stability constant (Kstab) with Sualfadex
1,"C=C[C@H]1CN2CCc3c([nH]c4cccc(OC)c34)[C@@H]2C[C@@H]1/C(=C\OC)C(=O)OC [Paynantheine, paynantheine]",80 ± 15 M⁻¹

# Test: ACE complex stability, Succ-β-CD
# Assay type: physicochemical
# Conditions: succinyl-β-CD DS~6, 30 mM phosphate buffer pH 7.4, 25 °C
# Protocol: as §1, §2, §3, §4, §5
row,Compound,complex stability constant (Kstab) with Succ-β-CD
1,"C=C[C@H]1CN2CCc3c([nH]c4cccc(OC)c34)[C@@H]2C[C@@H]1/C(=C\OC)C(=O)OC [Paynantheine, paynantheine]",360 ± 30 M⁻¹

# Test: ACE complex stability, Phos-β-CD
# Assay type: physicochemical
# Conditions: phosphated-β-CD DS~2-6, 30 mM phosphate buffer pH 7.4, 25 °C
# Protocol: as §1, §2, §3, §4, §5
row,Compound,complex stability constant (Kstab) with Phos-β-CD
1,"C=C[C@H]1CN2CCc3c([nH]c4cccc(OC)c34)[C@@H]2C[C@@H]1/C(=C\OC)C(=O)OC [Paynantheine, paynantheine]",335 ± 30 M⁻¹

# Test: ACE complex stability, SBE-β-CD DS~4
# Assay type: physicochemical
# Conditions: sulfobutyl-ether-β-CD DS~4, 30 mM phosphate buffer pH 7.4, 25 °C
# Protocol: as §1, §2, §3, §4, §5
row,Compound,complex stability constant (Kstab) with SBE-β-CD DS~4
1,"C=C[C@H]1CN2CCc3c([nH]c4cccc(OC)c34)[C@@H]2C[C@@H]1/C(=C\OC)C(=O)OC [Paynantheine, paynantheine]",830 ± 50 M⁻¹

# Test: ACE complex stability, HxDMS-α-CD
# Assay type: physicochemical
# Conditions: hexakis-(2,3-O-dimethyl, 6-O-sulfo)-α-CD, 30 mM phosphate buffer pH 7.4, 25 °C
# Protocol: as §1, §2, §3, §4, §5
row,Compound,complex stability constant (Kstab) with HxDMS-α-CD
1,"C=C[C@H]1CN2CCc3c([nH]c4cccc(OC)c34)[C@@H]2C[C@@H]1/C(=C\OC)C(=O)OC [Paynantheine, paynantheine]",110 ± 8 M⁻¹

# Test: ACE complex stability, HDMS-β-CD
# Assay type: physicochemical
# Conditions: heptakis-(2,3-O-dimethyl, 6-O-sulfo)-β-CD, 30 mM phosphate buffer pH 7.4, 25 °C
# Protocol: as §1, §2, §3, §4, §5
row,Compound,complex stability constant (Kstab) with HDMS-β-CD
1,"C=C[C@H]1CN2CCc3c([nH]c4cccc(OC)c34)[C@@H]2C[C@@H]1/C(=C\OC)C(=O)OC [Paynantheine, paynantheine]",135 ± 14 M⁻¹

# Test: ACE complex stability, ODMS-γ-CD
# Assay type: physicochemical
# Conditions: octakis-(2,3-O-dimethyl, 6-O-sulfo)-γ-CD, 30 mM phosphate buffer pH 7.4, 25 °C
# Protocol: as §1, §2, §3, §4, §5
row,Compound,complex stability constant (Kstab) with ODMS-γ-CD
1,"C=C[C@H]1CN2CCc3c([nH]c4cccc(OC)c34)[C@@H]2C[C@@H]1/C(=C\OC)C(=O)OC [Paynantheine, paynantheine]",280 ± 25 M⁻¹

# Test: ACE complex stability, HMDiSu-β-CD
# Assay type: physicochemical
# Conditions: heptakis-(2-O-methyl, 3,6-O-disulfo)-β-CD, 30 mM phosphate buffer pH 7.4, 25 °C
# Protocol: as §1, §2, §3, §4, §5
row,Compound,complex stability constant (Kstab) with HMDiSu-β-CD
1,"C=C[C@H]1CN2CCc3c([nH]c4cccc(OC)c34)[C@@H]2C[C@@H]1/C(=C\OC)C(=O)OC [Paynantheine, paynantheine]",350 ± 10 M⁻¹

# Test: ACE complex stability, MA-β-CD
# Assay type: physicochemical
# Conditions: mono-(6-N-amino-6-deoxy)-β-CD, positively charged, 30 mM phosphate buffer pH 7.4, 25 °C
# Protocol: as §1, §2, §3, §4, §5
row,Compound,complex stability constant (Kstab) with MA-β-CD
1,"C=C[C@H]1CN2CCc3c([nH]c4cccc(OC)c34)[C@@H]2C[C@@H]1/C(=C\OC)C(=O)OC [Paynantheine, paynantheine]",< 10 M⁻¹

# Test: ACE complex stability, HPA-β-CD
# Assay type: physicochemical
# Conditions: mono-6^A-(3-hydroxy)propylamino-β-CD, positively charged, 30 mM phosphate buffer pH 7.4, 25 °C
# Protocol: as §1, §2, §3, §4, §5
row,Compound,complex stability constant (Kstab) with HPA-β-CD
1,"C=C[C@H]1CN2CCc3c([nH]c4cccc(OC)c34)[C@@H]2C[C@@H]1/C(=C\OC)C(=O)OC [Paynantheine, paynantheine]",< 10 M⁻¹

# Test: ACE complex stability, PYR-β-CD
# Assay type: physicochemical
# Conditions: 6-monodeoxy-6-pyrrolidine-β-CD, positively charged, 30 mM phosphate buffer pH 7.4, 25 °C
# Protocol: as §1, §2, §3, §4, §5
row,Compound,complex stability constant (Kstab) with PYR-β-CD
1,"C=C[C@H]1CN2CCc3c([nH]c4cccc(OC)c34)[C@@H]2C[C@@H]1/C(=C\OC)C(=O)OC [Paynantheine, paynantheine]",< 10 M⁻¹

# Test: ACE complex stability, PIP-β-CD
# Assay type: physicochemical
# Conditions: 6-monodeoxy-6-piperidine-β-CD, positively charged, 30 mM phosphate buffer pH 7.4, 25 °C
# Protocol: as §1, §2, §3, §4, §5
row,Compound,complex stability constant (Kstab) with PIP-β-CD
1,"C=C[C@H]1CN2CCc3c([nH]c4cccc(OC)c34)[C@@H]2C[C@@H]1/C(=C\OC)C(=O)OC [Paynantheine, paynantheine]",< 10 M⁻¹

# Test: ACE complex stability, MePYR-β-CD
# Assay type: physicochemical
# Conditions: mono-6^A-(N-methyl-pyrrolidine)-β-CD, positively charged, 30 mM phosphate buffer pH 7.4, 25 °C
# Protocol: as §1, §2, §3, §4, §5
row,Compound,complex stability constant (Kstab) with MePYR-β-CD
1,"C=C[C@H]1CN2CCc3c([nH]c4cccc(OC)c34)[C@@H]2C[C@@H]1/C(=C\OC)C(=O)OC [Paynantheine, paynantheine]",< 10 M⁻¹

# Test: ACE complex stability, MePIP-β-CD
# Assay type: physicochemical
# Conditions: mono-6^A-(N-methyl-piperidine)-β-CD, positively charged, 30 mM phosphate buffer pH 7.4, 25 °C
# Protocol: as §1, §2, §3, §4, §5
row,Compound,complex stability constant (Kstab) with MePIP-β-CD
1,"C=C[C@H]1CN2CCc3c([nH]c4cccc(OC)c34)[C@@H]2C[C@@H]1/C(=C\OC)C(=O)OC [Paynantheine, paynantheine]",< 10 M⁻¹
